The values below come from PubChem BioAssay (NCI).

Holding throughout (assay): NCI-60 cell line screen, 48 h
Assay [1] concerns ACHN renal.
In assay [2] the test system is CAKI-1 renal.
The subject of assay [3] is DU-145 prostate.
Assay [4] relates to HCT-15 colon.
Assay [5] deals with OVCAR-5 ovarian.
Assay [6] relates to PC-3 prostate.
Assay [7] deals with RPMI-8226 leukemia.
The subject of assay [8] is SK-MEL-2 melanoma.
Assay [9] relates to SK-MEL-28 melanoma.
Assay [10] concerns SNB-75 CNS.

The structures appear in SMILES notation. Values joined by “and” are separate entries in the source; they are usually repeats but may differ in a detail not shown here. Equal entries are not always repeated.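 These data come from cells grown in 96-well plates and exposed to compound for 48 hours at five concentrations. The concentration for 50% growth inhibition is given as GI50. At the TGI there is no net growth.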

As to `NC[C@H]1Nc2ccccc2[C@@H](O)C1O` (stereo not given in full), the TGI in assay [1], in [2], in assay [3], in assay [4], in [5] and in [6] was greater than 100 µM throughout. Also, the TGI in assay [7], in assay [8], in assay [9] and in assay [10] was greater than 100 µM each time.
For `N#Cc1ccc2c(c1)C(=O)c1c-2n(CCCCl)c(=O)c2cc([N+](=O)[O-])ccc12`, the GI50 in assay [1] was 1.91 µM; in assay [2], 18 µM; in assay [3], 2.74 µM; in assay [4] it was 58.4 µM; in assay [5] it was 65.4 µM; in assay [6], 19.1 µM. Besides, the GI50 was 3.44 µM in assay [7], 16.9 µM in assay [8], 41.1 µM in assay [9] and 3.51 µM in [10]. For the same compound, the TGI in assay [1] was 6.59 µM; in assay [2] it was greater than 100 µM; in [3], 23.9 µM; in assay [4], greater than 100 µM; in assay [5], greater than 100 µM; in [6] it was greater than 100 µM. The TGI was 20.6 µM in assay [7], 54.1 µM in assay [8], greater than 100 µM in [9] and 11.5 µM in [10].
As to `C=C1C(=O)O[C@H]2[C@H]1CC/C(COC(=O)c1cc3ccccc3o1)=C\CC[C@@]1(C)O[C@@H]21`, the GI50 was 1.44 µM in [1]; 1.18 µM in assay [3]; 1.07 µM in assay [4]; 1.88 µM in assay [5]; 1.76 µM in assay [6]; 0.715 µM in [7]. The GI50 in assay [8] is 1.77 µM; in assay [9] it was 1.75 µM; in assay [10], 1.34 µM. Moreover, the TGI turned out to be 2.76 µM in assay [1]; 2.45 µM in [3]; 2.86 µM in assay [4]; 3.75 µM in assay [5]; 3.72 µM in assay [6]; 3.44 µM in assay [7]. Also, the TGI in assay [8] turned out to be 3.81 µM; in assay [9], 3.59 µM; in [10] it was 3.18 µM.
Take `COc1cc(Nc2nc3ccccc3nc2NS(=O)(=O)c2ccc(NC(=O)c3ccc(C)c(OC)c3)cc2)cc(OC)c1`: the TGI in assay [1] was 48.7 µM and 62.8 µM and > 10 µM; in assay [2], > 100 µM and 73.8 µM and > 6.67 µM; in [3] it was greater than 100 µM; in assay [4], greater than 100 µM; in [5], greater than 100 µM; in [6], > 100 µM and 74.9 µM and > 6.71 µM. In addition, the TGI is 84.5 µM and 53.8 µM and > 10 µM in assay [7]; 22.6 µM and 32.8 µM and 3.83 µM in assay [8]; 13.3 µM and 20 µM and 2.75 µM in assay [10]. Moreover, the GI50 is 4.97 µM and 19.9 µM and 2 µM in assay [4]; 3.98 µM and 12.3 µM and 1.96 µM in assay [7]; 1.39 µM and 1.51 µM and 0.302 µM in assay [10].
Consider `O=C1CC(=O)N(C(=O)c2nn(-c3ccc(Cl)cc3)cc2O)N1`, for which the GI50 is 0.544 µM in assay [1]; 0.639 µM in [2]; 0.923 µM in [3]; 0.486 µM in assay [4]; 4.17 µM in assay [5]; 0.36 µM in assay [6]. Besides, the GI50 in [7] was 0.37 µM; in assay [8] it was greater than 100 µM; in assay [9], 2.82 µM; in [10] it was 0.242 µM. The TGI in assay [1] is greater than 100 µM; in assay [2], 12.7 µM; in assay [3], greater than 100 µM; in assay [4] it was greater than 100 µM; in assay [5], greater than 100 µM; in [6] it was greater than 100 µM. Besides, the TGI in assay [7] is 11.1 µM; in assay [8], greater than 100 µM; in assay [9], greater than 100 µM; in assay [10] it was greater than 100 µM.
`Cc1cc(=O)oc2c(C)c(O)ccc12`: the TGI in assay [1], in assay [2], in assay [3], in [4], in assay [5] and in assay [6] was greater than 100 µM throughout. Moreover, the TGI in assay [7], in [8], in assay [9] and in assay [10] was greater than 100 µM each time.
For `CS(=O)(=O)CCNCc1ccc(-c2ccc3ncnc(Nc4ccc(OCc5ccccc5)c(Br)c4)c3c2)o1`, the GI50 in [1] is 1.13 µM; in assay [2], 2.43 µM; in assay [3], 12.6 µM; in assay [4], 4.51 µM; in assay [5] it was 7.05 µM; in assay [6], 9.28 µM. The GI50 is 8.67 µM in assay [7], 6.5 µM in assay [8], 4.5 µM in [9] and 10.1 µM in assay [10]. Further, the TGI in assay [1] was greater than 25 µM; in assay [2], greater than 25 µM; in assay [3] it was greater than 25 µM; in assay [4], 14.7 µM; in assay [5], greater than 25 µM; in assay [6] it was greater than 25 µM. Further, the TGI in assay [7] was greater than 24.1 µM; in assay [8], 13.1 µM; in assay [9] it was 9.08 µM; in assay [10] it was greater than 25 µM.
Turning to `Cc1ccc(NC2=C(Cl)C(=O)N(Cc3ccc(Cl)cc3)C2=O)cc1O`, the GI50 in [2] was 2.79 µM; in assay [3] it was 14.9 µM; in assay [6], 5.5 µM; in assay [7], 2.04 µM; in [8] it was 10.7 µM; in assay [9], 14.8 µM. Also, the TGI came out at 18 µM in assay [2]; 40.6 µM in [3]; 35.6 µM in assay [6]; 14.8 µM in [7]; 26.7 µM in [8]; 44.4 µM in assay [9].
With `O=c1ccs[nH]1`, the TGI is 17.8 µM in [1]; 22.2 µM in assay [2]; greater than 91.3 µM in assay [3]; 33.8 µM in assay [4]; 36.3 µM in assay [5]; 31.4 µM in assay [6]. The TGI in assay [7] came out at 21.8 µM; in assay [8], 61.3 µM; in [9], 67.5 µM; in assay [10], 36.5 µM.
In the case of `COc1cccc(/C=C/[N+](=O)[O-])c1`, the GI50 in assay [1] is 2.49 µM; in assay [3], 2.26 µM; in assay [4] it was 2.17 µM; in assay [5], 12.3 µM; in [6] it was 4.58 µM; in assay [7], 1.78 µM. In addition, the GI50 in assay [8] is 17.4 µM; in assay [9], 2.39 µM; in [10], 12.4 µM. Further, the TGI in [1] worked out at 6.06 µM; in assay [3] it was 5.64 µM; in assay [4] it was 6.18 µM; in [5] it was 27.6 µM; in assay [6], 17 µM; in assay [7], 4.54 µM. Also, the figures for the TGI in assay [8], in assay [9] and in [10] were 35.9 µM, 6.28 µM and 27.9 µM, respectively.
